# According to patent publication US20220339135A1, “COMPOSITIONS AND METHODS FOR MODULATING AN INFLAMMATORY RESPONSE” (Enzychem Lifesciences Corporation, priority 2019, published 2022):
# Experiments:
# [1] = test system: radiation-induced lung injury; test: Radiation-induced lung injury in mice; format: in vivo
# Experimental: Balb/c mice were grouped into four groups: 1) control group, 2) radiation group, 3) radiation+EC-18 50 mg/kg of PLAG, and 4) radiation+EC-18 250 mg/kg of PLAG. Lung was extracted at day 3 after 6.11Gy of TBI by γ-ray (FIG. 37A). EC-18 was treated daily. Tissue was fixed with formaldehyde, and H&E staining was carried out.
# [2] = test system: ERK, p38 MAPK, JNK in THP-1 cells; test: Gemcitabine-induced phosphorylation of ERK, p38 MAPK, JNK, western blot; format: cell-based, human
# Experimental: Total cells were lysed on ice for 30 minutes in RIPA buffer composed of 50 mM Tris-HCl (pH 7.4), 150 mM NaCl, 2 mM EDTA, 1% NP-40, 0.5% sodium deoxycholate, 0.1% SDS, 1 mM phenylmethylsulfonyl fluoride (PMSF), 10 mM sodium fluoride, 2 mM sodium pyrophosphate, 10 mM β-glycerophosphate, 10 mM sodium orthovanadate. Membrane-and-cytoplasmic protein fractions of cultured cells were obtained with Mem-PER Plus Membrane Protein Extraction Kit (Thermo Scientific, MA, USA) according to the manufacturer's instructions. The lysates were centrifuged at 13,000 rpm for 20 minutes at 4° C. and protein concentrations were determined using the Bradford assay (Bio-Rad Laboratories). Denatured samples were mixed with a 5×SDS-PAGE loading buffer and heated to 100° C. for 15 min. The samples were separated on the 10% of SDS-PAGE gel and transferred to polyvinylidene difluoride (PVDF) membranes (Merck Millipore Corporation, MA, USA). Membranes were blocked with 5% non-fat milk in PBS (10 mM Tris-HCl, pH7.5, 150 mM NaCl) for 1 h and probed with primary antibodies against ERK1/2, phospho-ERK1/2, P38, phospho-P38, SAPK/JNK, phospho-SAPK/JNK, Na, K-ATPase, α-Tubulin, and β-actin from Cell Signaling Technology (MA, USA), Rac1 from Merck Millipore Corporation), p47phox and phospho-p47phox from Invitrogen, adenosine receptor A1 from Abcam, β arrestin-1 from Santa Cruz Technology for overnight at 4° C. The blots were washed and incubated with appropriate secondary antibodies and visualized using Pierce ECL Western Blotting Substrate (Thermo Scientific).
# [3] = test system: chemotherapy-induced neutropenia; test: Chemotherapy-induced neutropenia in pancreatic cancer patients; format: in vivo, human
# Description: From January 2014 to September 2014, 16 patients with histologically or cytologically confirmed unresectable pancreatic cancer were enrolled in this study. […] Historical controls were also recruited from Asan Medical Center from March 2012 to December 2013. The eligibility criteria for the control group were the same as those for cases who intake PLAG during gemcitabine-based chemotherapy. The control group (n=32) was matched to the PLAG group (n=16) based on age, performance status, chemotherapy cycle, comorbidity, and disease extent. This study was approved by a hospital institutional review board.
# All patients received gemcitabine 1,000 mg/m^2 on days 1, 8, and 15 of each 4-week schedule and daily erlotinib at 100 mg orally. In the PLAG group, PLAG 500 mg was orally administered twice daily from the start of the chemotherapy to the completion. Hematology and serum chemistry analyses were performed at screening baseline, then weekly until the end of the study. Febrile neutropenia (FN) was defined as an ANC of less than 1,000/mm^3 and an oral temperature of more than 38° C. on the same day or the following day after chemotherapy. If on the day of chemotherapy administration, a patient's ANC was reduced to 500-1,000/mm^3 or if the absolute platelet count was reduced to 50,000-100,000/mm^3, the gemcitabine dose was reduced by 75%. Gemcitabine was omitted for 1 week if the neutrophil count was lower than 500/mm^3, or the absolute platelet count was lower than 50,000/mm^3. […] Erlotinib dose was interrupted in patients within tolerable rash and was reduced or discontinued if symptoms persisted for 10-14 days. Erlotinib dose was reduced for grade 2 diarrhea persisting for 48-72 h and for grade 3 diarrhea following resolution to grade 1; erlotinib was permanently discontinued for grade 4 diarrhea. Treatment continued until disease progression unacceptable toxicity, withdrawal of patient's consent or physician's decision. Safety was evaluated throughout the entire study. Toxicity was graded based on the NCI Common Terminology Criteria for Adverse Events (CTCAE) version 3.0.
# The primary endpoint was neutropenia, and the secondary endpoint was a safety profile. All analyses were performed using SPSS version 17.0 (SPSS Inc., Chicago, Ill., USA). Descriptive statistics were used to evaluate demographics, and safety data continuous variables were compared using the Mann-Whitney U test, paired t-test, and independent T-test. A P value of <0.05 was considered statistically significant.
smiles,measurement,setting,value
"CCCCC/C=C\C/C=C\CCCCCCCC(=O)OC(COC(C)=O)COC(=O)CCCCCCCCCCCCCCC (racemic) [PLAG, 1-palmitoyl-2-linoleoyl-3-acetylglycerol]",pulmonary capillary leakage,"[1]; 6.11Gy TBI, day 3, dose-dependently",less pulmonary capillary leakage
same,leakage erythrocyte at the interstitial tissue,[1]; PLAG 50mpk and 250mpk,not observed
same,gemcitabine-induced phosphorylation of ERK and p38 MAPK,[2],dose-dependently decreased
same,gemcitabine-induced phosphorylation of JNK,[2],did not
same,"incidence of neutropenia (ANC<1,500/mm^3, grade 2-4)","[3]; PLAG 500 mg orally twice daily with gemcitabine + erlotinib, n=16",37.5%
same,ANC nadir (relative to baseline),[3]; PLAG group,about 0.75
same,febrile neutropenia (FN),[3]; PLAG group,did not occur
same,"severe neutropenia (ANC<500/mm^3, grade 4)",[3]; PLAG group vs control group,developed only in the control group
same,adverse events related to PLAG during chemotherapy,"[3]; including nausea/vomiting, bone pain, fatigue, liver dysfunction",no adverse events related to PLAG
same,decrease of ANCs from the baseline level,"[3]; vs control group, P<0.05",decreased significantly less
